By melting point is commonly meant the temperature, or range, at which the solid turns liquid.

This is an account of results in US20040023806A1 (priority 1999, published 2004).

One data set concerns Venturia inaequalis. Briefly: Residual protective activity against Venturia inaequalis in apples. Particulars: apple seedlings sprayed with 0.02% active substance, infected 24 hours later, assessed 12 days after infection. Format: in vivo. As to the method: Apple seedlings with fresh shoots 10 to 20 cm long are sprayed to runoff with an aqueous spray liquor (0.02% active substance) prepared from a wettable powder of the active substance and 24 hours later are infected with a conidia suspension of the fungus. The plants are incubated at from 90 to 100 percent relative atmospheric humidity for 5 days and placed in a greenhouse at from 20 to 24° C. for […]. Fungal infestation is assessed 12 days after infection.

The subject of another data set is Phytophthora infestans. The format is in vivo. Particulars: tomato plants sprayed with 0.02% active substance, infected 24 hours later, assessed 5 days after infection.
The next data set relates to Aphis craccivora. The data set is described as follows: Activity against Aphis craccivora. The format is in vivo. Particulars: pea seedlings, spray liquor 100 ppm active substance, 20° C., 3 and 6 days later. Here is the method:
Pea seedlings are infected with Aphis craccivora and sprayed with a spray liquor containing 100 ppm active substance and incubated at 20° C. 3 and 6 days later, the percentage reduction in the population (% activity) is determined by comparing the number of dead aphids on the treated and untreated plants.

The subject of another data set is Cercospora arachidicola. Briefly: Residual protective activity against Cercospora arachidicola in peanuts. The format is in vivo. Particulars: peanut plants sprayed with 0.02% active substance, infected 48 hours later, evaluated 12 days after infection (number and size of leaf spots). Here is the method: Peanut plants 10 to 15 cm high are sprayed to runoff with an aqueous spray liquor (0.02% active substance) prepared from a wettable powder of the active substance and 48 hours later are infected with a conidia suspension of the fungus. The plants are incubated at 21° C. and high atmospheric humidity for 72 hours and then placed in a greenhouse until the typical leaf spots appear. The activity of the active substance is evaluated 12 days after infection, on the basis of the number and size of leaf spots.

Molecule `CO/N=C(/C(C)=N/OCc1ccccc1NC(=O)OC)c1ccc(F)cc1` came in with a melting point of 143 to 144 °C.

With `CCO/N=C(/C(C)=N/N=C/c1ccccc1N(C)C(=O)OC)c1ccc(Oc2ccc(C(F)(F)F)cc2)cc1` [Compound 1 from table a, Methyl N-methyl-[2-({2-ethoxyimino-1-methyl-2-[4-(4-trifluoromethylphenoxy)phenyl]ethylidene}hydrazonomethyl)phenyl]carbamate], the activity entry in the data set on Venturia inaequalis and in the data set with Phytophthora infestans was “more than 80%” in each case.

`CO/N=C(C)/C(C)=N/OCc1ccccc1NC(=O)OC` [Compound 1 from table b, Methyl [2-(2-(E)-methoxyimino-1-methyl-(E)-propylideneaminooxymethyl)phenyl]carbamate] displayed a melting point of 96.5 to 97.5 °C.

With `CCON=C(C(C)=NN=Cc1ccccc1N(COC)C(=O)OC)c1ccc(Oc2ccc(C(F)(F)F)cc2)cc1` [Compound 5 from table a, methyl N-methoxymethyl-[2-({2-ethoxyimino-1-methyl-2-[4-(4-trifluoromethylphenoxy)phenyl]ethylidene}hydrazonomethyl)phenyl]carbamate], in the data set on Aphis craccivora, the “kill rate (% activity, reduction in population)” value is “more than 80%”.

The molecule `CCN(C(=O)OC)c1ccccc1CO/N=C(C)/C(C)=N/OC` [Compound 7 from table b, Methyl N-ethyl-[2-(2-(E)-methoxyimino-1-methyl-(E)-propylideneaminooxymethyl)phenyl]carbamate] had a melting point of 101 to 102 °C. Besides, in the data set on Cercospora arachidicola, the activity entry is on record as “more than 80%”.
